Test results published in patent publication US8809341B2, “2,4-pyrimidinediamine compounds and uses as anti-proliferative agents” (Rigel Pharmaceuticals, Inc., priority 2003, dated 2014).

Experiments:
[1] = test system: A549 cells; experiment: in vitro antiproliferation assay, A549 (lung); format: cell-based
Summary of the method: (§1)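 IC50 values came from standard antiproliferation testing in cultured tumour cells; the A549 and H1299 lines are of lung origin.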

[2] = test system: H1299 cells; experiment: in vitro antiproliferation assay, H1299 (lung); format: cell-based
Summary of the method: as §1

[3] = Table 5, in vitro antiproliferation, A549 (lung) cells
[4] = Table 5, in vitro antiproliferation, H1299 (lung) cells
[5] = IC50 class against A549 (lung) tumor cells
[6] = IC50 class against H1299 (lung) tumor cells

SMILES	IC50 [1, 3]	IC50 [2, 4]	IC50 [1, 5]	IC50 [2, 6]
Fc1cnc(Nc2ccc(OC(F)F)c(Cl)c2)nc1Nc1ccc2c(c1)OCCO2 [compound 526]	≤ 20 µM	> 20 µM		
Fc1cnc(Nc2cc(Cl)cc(Cl)c2)nc1Nc1ccc2c(c1)OCCO2 [compound 530]	≤ 20 µM	≤ 20 µM		
COc1cc(Nc2ncc(F)c(Nc3ccc4c(c3)OCCO4)n2)cc(C(F)(F)F)c1 [compound 531]	> 20 µM	≤ 20 µM		
COc1cc(Nc2ncc(F)c(Nc3ccc4c(c3)OC(F)(F)C(F)(F)O4)n2)cc(OC)c1 [compound 532]	≤ 20 µM	≤ 20 µM		
Cc1cc(Nc2ncc(F)c(Nc3ccc4c(c3)OC(F)(F)C(F)(F)O4)n2)cc(C)c1Cl [compound 533]	> 20 µM	≤ 20 µM		
Fc1cnc(Nc2cc(Cl)cc(Cl)c2)nc1Nc1ccc2c(c1)OC(F)(F)C(F)(F)O2 [compound 535]	≤ 20 µM	≤ 20 µM		
COc1cc(Nc2ncc(F)c(Nc3ccc4c(c3)OC(F)(F)C(F)(F)O4)n2)cc(C(F)(F)F)c1 [compound 536]	≤ 20 µM	≤ 20 µM		
Cc1cc(C)cc(Nc2ncc(F)c(Nc3ccc4c(c3)OC(F)(F)C(F)(F)O4)n2)c1 [compound 537]	≤ 20 µM	≤ 20 µM		
Cc1cc(Nc2ncc(F)c(Nc3ccc4c(c3)OC(F)(F)C(F)(F)O4)n2)cc(C(F)(F)F)c1 [compound 538]	≤ 20 µM	> 20 µM		
COc1cc(Cl)cc(Nc2ncc(F)c(Nc3ccc4c(c3)OCCO4)n2)c1 [compound 539]	≤ 20 µM	≤ 20 µM		
COc1cc(Nc2ncc(F)c(Nc3ccc4c(c3)OCO4)n2)cc(C(F)(F)F)c1 [compound 541]	≤ 20 µM	≤ 20 µM		
Cc1cc(Nc2ncc(F)c(Nc3ccc4c(c3)OCO4)n2)cc(C(F)(F)F)c1 [compound 542]	> 20 µM	> 20 µM		
Fc1cnc(Nc2cc(Cl)cc(Cl)c2)nc1Nc1ccc2c(c1)OCO2 [compound 543]	≤ 20 µM	≤ 20 µM		
Cc1cc(C)cc(Nc2ncc(F)c(Nc3ccc4c(c3)OCO4)n2)c1 [compound 544]	> 20 µM	> 20 µM		
COc1cc(Nc2ncc(F)c(N(C)c3ccc4c(c3)OCCO4)n2)cc(OC)c1 [compound 546]	≤ 20 µM	> 20 µM		
Cc1cc(C)cc(Nc2ncc(F)c(N(C)c3ccc4c(c3)OCCO4)n2)c1 [compound 547]	≤ 20 µM	≤ 20 µM		
CN(c1ccc2c(c1)OCCO2)c1nc(Nc2cccc(-c3ncco3)c2)ncc1F [compound 549]	≤ 20 µM	≤ 20 µM		
CC(=O)N1CCN(c2cccc(Nc3ncc(F)c(Nc4ccc5c(c4)OCCO5)n3)c2)CC1 [compound 550]	≤ 20 µM	≤ 20 µM		
CC(=O)N1CCN(c2cccc(Nc3ncc(F)c(Nc4ccc5c(c4)OC(F)(F)C(F)(F)O5)n3)c2)CC1 [compound 552]	≤ 20 µM	≤ 20 µM		
CC(=O)N1CCN(c2ccc(Nc3ncc(F)c(Nc4ccc5c(c4)OC(F)(F)C(F)(F)O5)n3)cc2)CC1 [compound 553]	≤ 20 µM	≤ 20 µM		
CNC(=O)c1ccc(Nc2ncc(F)c(Nc3ccc4c(c3)OCCO4)n2)cc1Cl [compound 554]	≤ 20 µM	≤ 20 µM		
COC(=O)c1cc(Nc2ncc(F)c(Nc3ccc4c(c3)OCCO4)n2)cc(-c2ncco2)c1 [compound 558]	≤ 20 µM	≤ 20 µM		
Fc1cnc(Nc2cc(-c3ncco3)cc(C(F)(F)F)c2)nc1Nc1ccc2c(c1)OCCO2 [compound 559]	≤ 20 µM	≤ 20 µM		
COc1cc(Nc2ncc(F)c(Nc3ccc4c(c3)OC(F)(F)O4)n2)cc(OC)c1OC [compound 560]	≤ 20 µM	≤ 20 µM		
COc1cc(Nc2ncc(F)c(Nc3ccc4c(c3)OC(F)(F)O4)n2)cc(OC)c1 [compound 561]	≤ 20 µM	≤ 20 µM		
Cc1cc(C)cc(Nc2ncc(F)c(Nc3ccc4c(c3)OC(F)(F)O4)n2)c1 [compound 562]	≤ 20 µM	≤ 20 µM		
Oc1c(Cl)cc(Nc2ncc(F)c(Nc3ccc4c(c3)OC(F)(F)O4)n2)cc1Cl [compound 563]	≤ 20 µM	≤ 20 µM		
Fc1cnc(Nc2cc(Cl)cc(Cl)c2)nc1Nc1ccc2c(c1)OC(F)(F)O2 [compound 564]	≤ 20 µM	≤ 20 µM		

SMILES	IC50 [1, 3]	IC50 [2, 4]	IC50 [1, 5]	IC50 [2, 6]
Cc1cc(Nc2ncc(F)c(Nc3ccc4c(c3)OC(F)(F)O4)n2)cc(C)c1Cl [compound 565]	> 20 µM	> 20 µM		
Cc1cc(Nc2ncc(F)c(Nc3ccc4c(c3)OC(F)(F)O4)n2)cc(Cl)c1O [compound 566]	≤ 20 µM	≤ 20 µM		
COc1cc(Nc2ncc(F)c(Nc3ccc4c(c3)OC(F)(F)O4)n2)cc(C(F)(F)F)c1 [compound 567]	≤ 20 µM	≤ 20 µM		
Cc1cc(Nc2ncc(F)c(Nc3ccc4c(c3)OC(F)(F)O4)n2)cc(C(F)(F)F)c1 [compound 568]	> 20 µM	≤ 20 µM		
CNC(=O)COc1c(C)cc(Nc2ncc(F)c(Nc3ccc4c(c3)OCCO4)n2)cc1C [compound 569]	≤ 20 µM	≤ 20 µM		
CNC(=O)COc1c(C)cc(Nc2ncc(F)c(Nc3ccc4c(c3)OCO4)n2)cc1C [compound 570]	≤ 20 µM	≤ 20 µM		
Fc1cnc(Nc2cccc(-c3ncco3)c2)nc1Nc1ccc2c(c1)OC(F)(F)C(F)(F)O2 [compound 571]	≤ 20 µM	≤ 20 µM		
CN(c1ccc2c(c1)OC(F)(F)C(F)(F)O2)c1nc(Nc2cccc(-c3ncco3)c2)ncc1F [compound 572]	≤ 20 µM	≤ 20 µM		
CNC(=O)COc1c(C)cc(Nc2ncc(F)c(N(C)c3ccc4c(c3)OCCO4)n2)cc1C [compound 573]	≤ 20 µM	≤ 20 µM		
CNC(=O)COc1c(C)cc(Nc2ncc(F)c(N(C)c3ccc4c(c3)OC(F)(F)C(F)(F)O4)n2)cc1C [compound 574]	≤ 20 µM	≤ 20 µM		
CNC(=O)COc1c(C)cc(Nc2ncc(F)c(Nc3ccc4c(c3)OC(F)(F)C(F)(F)O4)n2)cc1C [compound 575]	≤ 20 µM	≤ 20 µM		
COc1cc(Nc2ncc(F)c(Nc3ccc4c(c3)NC(C)(C)CO4)n2)cc(OC)c1 [compound 588]			≤ 20 µM	≤ 20 µM
Fc1cnc(Nc2cccc(-c3ncco3)c2)nc1Nc1ccc2c(c1)NCCO2 [compound 589]			≤ 20 µM	≤ 20 µM
CC1(C)COc2ccc(Nc3nc(Nc4cccc(-c5ncco5)c4)ncc3F)cc2N1 [compound 590]			≤ 20 µM	≤ 20 µM
Fc1cnc(Nc2cccc(-c3cnco3)c2)nc1Nc1ccc2c(c1)NCCO2 [compound 591]			≤ 20 µM	≤ 20 µM
CC1(C)COc2ccc(Nc3nc(Nc4cccc(-c5cnco5)c4)ncc3F)cc2N1 [compound 592]			> 20 µM	> 20 µM
COc1c(C)cc(Nc2ncc(F)c(Nc3ccc4c(c3)NCC(C)(C)O4)n2)cc1Cl [compound 597]			≤ 20 µM	≤ 20 µM
CC(=O)N1CCN(c2ccc(Nc3ncc(F)c(Nc4ccc5c(n4)NCCO5)n3)cc2)CC1 [compound 603]			≤ 20 µM	≤ 20 µM
CCOC(=O)N1CCN(c2ccc(Nc3ncc(F)c(Nc4ccc5c(n4)NCCO5)n3)cc2)CC1 [compound 604]			> 20 µM	≤ 20 µM
Fc1cnc(Nc2cccc(N3CCOCC3)c2)nc1Nc1ccc2c(n1)NCCO2 [compound 605]			≤ 20 µM	≤ 20 µM
CC(=O)N1CCN(c2cccc(Nc3ncc(F)c(Nc4ccc5c(n4)NCCO5)n3)c2)CC1 [compound 606]			≤ 20 µM	≤ 20 µM
CCOC(=O)N1CCN(c2cccc(Nc3ncc(F)c(Nc4ccc5c(n4)NCCO5)n3)c2)CC1 [compound 607]			≤ 20 µM	≤ 20 µM
CN1CCN(c2ccc(Nc3ncc(F)c(Nc4ccc5c(n4)NCCO5)n3)cc2)CC1 [compound 608]			≤ 20 µM	≤ 20 µM
CN1CCN(c2cccc(Nc3ncc(F)c(Nc4ccc5c(n4)NCCO5)n3)c2)CC1 [compound 609]			≤ 20 µM	≤ 20 µM
Fc1cnc(Nc2cccc(-c3ncco3)c2)nc1Nc1ccc2c(n1)NCCO2 [compound 610]			≤ 20 µM	≤ 20 µM
COc1cc(Nc2ncc(F)c(Nc3ccc4c(n3)NCCO4)n2)cc(OC)c1OC [compound 611]			≤ 20 µM	≤ 20 µM
COc1ccc(Nc2ncc(F)c(Nc3ccc4c(n3)NCCO4)n2)cc1Cl [compound 612]			> 20 µM	> 20 µM
